The text below walks through data of ChEMBL document CHEMBL4004877, “Synthesis and biological evaluation of chalcone, dihydrochalcone, and 1,3-diarylpropane analogs as anti-inflammatory agents” (Bioorg Med Chem Lett, 2017).

In brackets after ≈: the same amount, converted by molar mass.

Data set [1] can be described thus: Cytotoxicity against LPS-stimulated mouse RAW264.7 cells assessed as cell viability at 10 ug/ml after 24 hrs by MTT assay relative to control. It counts as cell-based. As to conditions: LPS-stimulated RAW264.7 cells, read-out: Activity. For orientation: Tetrazolium dyes change colour on reduction, which living cells bring about.
Data set [2] is described as follows: Cytotoxicity against LPS-stimulated mouse RAW264.7 cells assessed as cell viability at 1.25 ug/ml after 24 hrs by MTT assay relative to control. It counts as cell-based. As to conditions: LPS-stimulated RAW264.7 cells, read-out: Activity.
Data set [3] relates to RAW264.7. Briefly: Antiinflammatory activity in mouse RAW264.7 cells assessed as inhibition of LPS induced iNOS-dependent nitric oxide production after 24 hrs by Griess assay. Format: functional, cell-based. As to conditions: RAW264.7, 24 h. For orientation: Nitrite, measured by Griess reagent, commonly stands in for NO production.
A short description of data set [4]: Cytotoxicity against LPS-stimulated mouse RAW264.7 cells assessed as cell viability at 2.5 ug/ml after 24 hrs by MTT assay relative to control. It counts as cell-based. As to conditions: LPS-stimulated RAW264.7 cells, read-out: Activity.
Data set [5] concerns RAW264.7. Put plainly: Antiinflammatory activity in mouse RAW264.7 cells assessed as inhibition of LPS induced iNOS-dependent nitric oxide production at 5 ug/ml after 24 hrs by Griess assay relative to control. Format: functional. As to conditions: RAW264.7, 24 h.
Data set [6] in a line: Cytotoxicity against LPS-stimulated mouse RAW264.7 cells assessed as cell viability at 5 ug/ml after 24 hrs by MTT assay relative to control. It counts as cell-based. As to conditions: LPS-stimulated RAW264.7 cells, read-out: Activity.
The subject of data set [7] is RAW264.7. Put plainly: Antiinflammatory activity in mouse RAW264.7 cells assessed as inhibition of LPS induced iNOS-dependent nitric oxide production at 2.5 ug/ml after 24 hrs by Griess assay relative to control. As to conditions: RAW264.7, 24 h. Format: functional.
In data set [8] the test system is RAW264.7. Put plainly: Antiinflammatory activity in mouse RAW264.7 cells assessed as inhibition of LPS induced iNOS-dependent nitric oxide production at 1.25 ug/ml after 24 hrs by Griess assay relative to control. Format: functional. As to conditions: RAW264.7, 24 h.
In data set [9] the test system is RAW264.7. Briefly: Antiinflammatory activity in mouse RAW264.7 cells assessed as inhibition of LPS induced iNOS-dependent nitric oxide production at 10 ug/ml after 24 hrs by Griess assay relative to control. As to conditions: RAW264.7, 24 h. It counts as functional.

For `COc1cc(C(=O)CCc2ccc3c(c2)OCO3)ccc1O`, the viability at 24 h, 10 ug/ml in [1] amounted to 89%. Besides, the viability at 24 h, 1.25 ug/ml in data set [2] is 95.3%. For the same compound, the IC50 (usually the concentration that gives 50% inhibition) in data set [3] came out at 9.44 µg/mL (≈ 31.4 µM). Also, the viability at 24 h, 2.5 ug/ml in data set [4] was 94.5%. Moreover, the inhibition (usually the change of the read-out against control, counted positive when it falls) at 5 µg/mL in data set [5] was 32.2%. The viability at 24 h, 5 ug/ml in data set [6] amounted to 92%. The inhibition at 2.5 µg/mL in data set [7] amounted to 5.5%. In addition, the inhibition at 1.25 µg/mL in [8] was determined as 4.2%. The inhibition at 10 µg/mL in data set [9] is 51.6%.

With `COc1cc(CCC(=O)c2cccc(O)c2)ccc1O`, the viability at 24 h, 10 ug/ml in data set [1] was determined as 91%. Also, the viability at 24 h, 1.25 ug/ml in data set [2] amounted to 100%. Moreover, the IC50 in data set [3] was found to be 9.78 µg/mL (≈ 35.9 µM). Also, the viability at 24 h, 2.5 ug/ml in data set [4] came to 98.9%. Besides, the inhibition at 5 µg/mL in data set [5] was 23.2%. In addition, the viability at 24 h, 5 ug/ml in data set [6] turned out to be 96.1%. For the same compound, the inhibition at 2.5 µg/mL in data set [7] was determined as 19.8%. Besides, in data set [8], the inhibition at 1.25 µg/mL amounted to 5.6%. Besides, the inhibition at 10 µg/mL in [9] was 50.9%.

In the case of `COc1ccc(/C=C/C(=O)c2ccc(OC)c(OC)c2)cc1OC`, in [1], the viability at 24 h, 10 ug/ml amounted to 60.4%. In addition, the viability at 24 h, 1.25 ug/ml in data set [2] came out at 94%. The 50% inhibitory concentration (IC50) in data set [3] is greater than 10 µg/mL. For the same compound, the viability at 24 h, 2.5 ug/ml in data set [4] stood at 91.9%. For the same compound, in data set [5], the inhibition at 5 µg/mL came to 2%. Also, the viability at 24 h, 5 ug/ml in [6] was 81.3%. Also, in [7], the inhibition at 2.5 µg/mL amounted to 1.7%. Further, the inhibition at 1.25 µg/mL in data set [8] was 0.2%. Besides, in data set [9], the inhibition at 10 µg/mL worked out at 3.3%.

On to `COc1ccc(CCC(=O)c2ccc(O)c(OC)c2)cc1`, for which the viability at 24 h, 10 ug/ml in [1] worked out at 86.5%. The viability at 24 h, 1.25 ug/ml in data set [2] worked out at 90%. Besides, in data set [3], the IC50 is 9.81 µg/mL (≈ 34.3 µM). Further, the viability at 24 h, 2.5 ug/ml in data set [4] turned out to be 92%. Further, in [5], the inhibition at 5 µg/mL amounted to 26.1%. For the same compound, the viability at 24 h, 5 ug/ml in data set [6] amounted to 89.8%. Further, the inhibition at 2.5 µg/mL in data set [7] came to 12.2%. Besides, in data set [8], the inhibition at 1.25 µg/mL was determined as 2.9%. Moreover, in data set [9], the inhibition at 10 µg/mL is 50.7%.

With `COc1ccc(CCCc2ccc(OC)cc2OC)c(O)c1`, the viability at 24 h, 10 ug/ml in data set [1] stood at 25.8%. For the same compound, the viability at 24 h, 1.25 ug/ml in data set [2] was found to be 100%. The IC50 in [3] turned out to be 6.71 µg/mL (≈ 22.2 µM). In data set [4], the viability at 24 h, 2.5 ug/ml was 97.7%. In [5], the inhibition at 5 µg/mL worked out at 35.2%. In addition, the viability at 24 h, 5 ug/ml in [6] came to 91.5%. For the same compound, in data set [7], the inhibition at 2.5 µg/mL came to 26.9%. In addition, in data set [8], the inhibition at 1.25 µg/mL stood at 10.4%. In addition, the inhibition at 10 µg/mL in [9] worked out at 70%.

For the compound `COc1ccc(CCCc2ccc(O)c(OC)c2)cc1`, in data set [1], the viability at 24 h, 10 ug/ml was found to be 66.3%. The viability at 24 h, 1.25 ug/ml in data set [2] was 99.2%. Further, the IC50 in [3] worked out at 5.08 µg/mL (≈ 18.7 µM). Besides, in data set [4], the viability at 24 h, 2.5 ug/ml came out at 97.8%. Moreover, in [5], the inhibition at 5 µg/mL is 49%. In [6], the viability at 24 h, 5 ug/ml was determined as 96.4%. For the same compound, in [7], the inhibition at 2.5 µg/mL amounted to 42.9%. Moreover, the inhibition at 1.25 µg/mL in data set [8] was 35.9%. The inhibition at 10 µg/mL in data set [9] worked out at 89.8%.

As for `COc1ccc(CCCc2ccc(OC)c(OC)c2)cc1O`, in [1], the viability at 24 h, 10 ug/ml was found to be 51.9%. In addition, the viability at 24 h, 1.25 ug/ml in data set [2] turned out to be 98%. The half-maximal inhibitory concentration (IC50) in [3] was 3.92 µg/mL (≈ 13 µM). The viability at 24 h, 2.5 ug/ml in [4] amounted to 95.5%. Also, in data set [5], the inhibition at 5 µg/mL amounted to 57.4%. Moreover, in data set [6], the viability at 24 h, 5 ug/ml is 86.2%. In [7], the inhibition at 2.5 µg/mL stood at 36.3%. Moreover, in data set [8], the inhibition at 1.25 µg/mL worked out at 32.4%. In [9], the inhibition at 10 µg/mL turned out to be 83.6%.

As for `COc1ccc(C(=O)CCc2ccc(OC)c(OC)c2)c(O)c1`, the viability at 24 h, 10 ug/ml in data set [1] turned out to be 67.5%. Moreover, the viability at 24 h, 1.25 ug/ml in data set [2] came out at 91.8%. Moreover, the IC50 in data set [3] turned out to be 7.86 µg/mL (≈ 24.8 µM). In addition, in data set [4], the viability at 24 h, 2.5 ug/ml was found to be 89%. For the same compound, the inhibition at 5 µg/mL in [5] turned out to be 38.3%. Besides, in [6], the viability at 24 h, 5 ug/ml was 75.2%. In data set [7], the inhibition at 2.5 µg/mL was determined as 23.9%. In addition, the inhibition at 1.25 µg/mL in data set [8] stood at 18.4%. The inhibition at 10 µg/mL in data set [9] is 56.2%.

`COc1ccc(OC)c(CCCc2cccc(O)c2)c1`: the viability at 24 h, 10 ug/ml in data set [1] was found to be 92.2%. Besides, the viability at 24 h, 1.25 ug/ml in [2] was determined as 101%. The concentration for half-maximal inhibition (IC50) in data set [3] was greater than 10 µg/mL. The viability at 24 h, 2.5 ug/ml in [4] was 98.2%. Besides, the inhibition at 5 µg/mL in data set [5] amounted to 36.8%. Further, in data set [6], the viability at 24 h, 5 ug/ml came out at 93.5%. In data set [7], the inhibition at 2.5 µg/mL was 19.9%. In data set [8], the inhibition at 1.25 µg/mL turned out to be 1.5%. In addition, the inhibition at 10 µg/mL in [9] is 38.9%.

Turning to `COc1ccc(CCCc2ccc3c(c2)OCO3)c(OC)c1`, the viability at 24 h, 10 ug/ml in data set [1] was 94.7%. In data set [2], the viability at 24 h, 1.25 ug/ml was 99.1%. The IC50 in data set [3] was greater than 10 µg/mL. For the same compound, the viability at 24 h, 2.5 ug/ml in data set [4] worked out at 97.7%. Also, the inhibition at 5 µg/mL in [5] was 28%. Also, the viability at 24 h, 5 ug/ml in data set [6] came out at 97.2%. Further, the inhibition at 2.5 µg/mL in data set [7] is 20.1%. The inhibition at 1.25 µg/mL in [8] worked out at 16.9%. For the same compound, the inhibition at 10 µg/mL in data set [9] is 44.6%.
